Our source for the Ki values is ChEMBL document CHEMBL1130568, “Antibody-mediated regio- and enantioselective resolution of a glycerol derivative” (Bioorg Med Chem Lett, 1997).

This assay in a line: Kinetic parameter for hydrolysis of 1 by Antibody 2D10 after addition of compound 12. Type of assay: ADME.

`CC(=O)O[C@@H](COCc1ccc([N+](=O)[O-])cc1)COP(=O)(O)CCCCCC(=O)O`: the Ki was found to be 2800 nM.

By Ki is commonly meant a dissociation constant, usually derived from enzyme kinetics or from competition with a known ligand. A lower Ki goes with higher affinity.
